Test results taken from ChEMBL document CHEMBL4507318, “Data for DCP probe BAY-985” (2021).
Activity calls are given as the source filed them. The calls are words filed in the database; no cut-off is given here.

What was measured:
[1] = target: Ephrin type-B receptor 3 (Homo sapiens) (UniProt P54753)
[2] = target: Maternal embryonic leucine zipper kinase (Homo sapiens) (UniProt Q14680)
[3] = target: Serine/threonine-protein kinase STK11 (Homo sapiens) (UniProt Q15831)
[4] = test system: Fibroblast growth factor receptor 3 (Homo sapiens), P22607 [G697C]
[5] = target: Receptor tyrosine-protein kinase erbB-3 (Homo sapiens) (UniProt P21860)
[6] = target: Atypical kinase COQ8A, mitochondrial (Homo sapiens) (UniProt Q8NI60)
[7] = target: Tyrosine-protein kinase Mer (Homo sapiens) (UniProt Q12866)
[8] = target: Cyclin-dependent kinase 4 (Homo sapiens) (UniProt P11802)
[9] = target: 5-hydroxytryptamine receptor 2A (Homo sapiens) (UniProt P28223); details: Compound concentration 10.0 uM
[10] = target: Mitogen-activated protein kinase 8 (Homo sapiens) (UniProt P45983)
[11] = target: Histamine H2 receptor (Homo sapiens) (UniProt P25021); details: Compound concentration 10.0 uM
[12] = target: Receptor-type tyrosine-protein kinase FLT3 (Homo sapiens) (UniProt P36888)
[13] = target: Serine/threonine-protein kinase 26 (Homo sapiens) (UniProt Q9P289)
[14] = target: Tyrosine-protein kinase ZAP-70 (Homo sapiens) (UniProt P43403)
[15] = target: Serine/threonine-protein kinase Chk2 (Homo sapiens) (UniProt O96017)
[16] = target: Serine/threonine-protein kinase RIO1 (Homo sapiens) (UniProt Q9BRS2)
[17] = target: RAC-gamma serine/threonine-protein kinase (Homo sapiens) (UniProt Q9Y243)
[18] = target: Activin receptor type-1B (Homo sapiens) (UniProt P36896)
[19] = target: 5-hydroxytryptamine receptor 2B (Homo sapiens, UniProt P41595); assay: GPCRScan assay: inhibition of 5-HT2B; set-up: radioligand conc. used [nm] 1.0 – 2.0, parental cells stable HEK
[20] = target: GABA-A receptor; anion channel (Rattus norvegicus) (UniProt O09028+P15431+P18506+P18508+P19969+P20236+P23574+P23576+P28471+P28473+P30191+P62813+P63079+P63138+Q91ZM7+Q9ES14); details: Compound concentration 10.0 uM
[21] = target: T1, Serine/threonine-protein kinase TBK1 (Homo sapiens, UniProt Q9UHD2); assay: Biochemical assay (high ATP) with TBK1
[22] = target: T1, Serine/threonine-protein kinase TBK1; assay: cell-based
[23] = target: Inhibitor of nuclear factor kappa-B kinase subunit epsilon (Homo sapiens, UniProt Q14164); assay: cell-based
[24] = target: Receptor-type tyrosine-protein kinase FLT3 (Homo sapiens, UniProt P36888); assay: NanoBRET with FTL3
[25] = target: Sodium-dependent dopamine transporter (Homo sapiens) (UniProt Q01959); details: Compound concentration 10.0 uM
[26] = target: Dual specificity mitogen-activated protein kinase kinase 5 (Homo sapiens, UniProt Q13163); assay: NanoBRET with MAP2K5
[27] = target: Mitogen-activated protein kinase kinase kinase 19 (Homo sapiens, UniProt Q56UN5); assay: NanoBRET with MAP3K19
[28] = target: Serine/threonine-protein kinase 17A (Homo sapiens, UniProt Q9UEE5); assay: NanoBRET with STK17A
[29] = Compound concentration 1000.0 nM
[30] = Compound concentration 100.0 nM

T1 sequence (Q9UHD2 whole entry): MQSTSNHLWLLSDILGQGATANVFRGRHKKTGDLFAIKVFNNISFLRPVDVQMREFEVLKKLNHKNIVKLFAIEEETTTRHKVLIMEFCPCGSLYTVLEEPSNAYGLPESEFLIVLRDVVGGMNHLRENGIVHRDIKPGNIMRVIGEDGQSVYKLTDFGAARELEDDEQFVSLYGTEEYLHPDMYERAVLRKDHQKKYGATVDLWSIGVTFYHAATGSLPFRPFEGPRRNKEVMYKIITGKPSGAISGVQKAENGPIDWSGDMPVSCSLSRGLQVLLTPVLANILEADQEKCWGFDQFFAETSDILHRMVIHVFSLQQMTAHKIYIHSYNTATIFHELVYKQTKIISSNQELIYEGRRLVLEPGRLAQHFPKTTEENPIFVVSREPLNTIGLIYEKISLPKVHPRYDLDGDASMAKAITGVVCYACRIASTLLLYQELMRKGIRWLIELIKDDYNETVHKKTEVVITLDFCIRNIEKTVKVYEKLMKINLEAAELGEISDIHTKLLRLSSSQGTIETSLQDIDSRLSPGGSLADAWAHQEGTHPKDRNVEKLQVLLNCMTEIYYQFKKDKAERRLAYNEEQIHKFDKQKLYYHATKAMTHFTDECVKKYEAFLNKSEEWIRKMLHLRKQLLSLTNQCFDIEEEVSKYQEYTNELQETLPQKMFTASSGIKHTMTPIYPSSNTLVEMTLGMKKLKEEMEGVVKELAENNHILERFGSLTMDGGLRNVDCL
Chain of Receptor tyrosine-protein kinase erbB-3 (Homo sapiens) (P21860 whole entry): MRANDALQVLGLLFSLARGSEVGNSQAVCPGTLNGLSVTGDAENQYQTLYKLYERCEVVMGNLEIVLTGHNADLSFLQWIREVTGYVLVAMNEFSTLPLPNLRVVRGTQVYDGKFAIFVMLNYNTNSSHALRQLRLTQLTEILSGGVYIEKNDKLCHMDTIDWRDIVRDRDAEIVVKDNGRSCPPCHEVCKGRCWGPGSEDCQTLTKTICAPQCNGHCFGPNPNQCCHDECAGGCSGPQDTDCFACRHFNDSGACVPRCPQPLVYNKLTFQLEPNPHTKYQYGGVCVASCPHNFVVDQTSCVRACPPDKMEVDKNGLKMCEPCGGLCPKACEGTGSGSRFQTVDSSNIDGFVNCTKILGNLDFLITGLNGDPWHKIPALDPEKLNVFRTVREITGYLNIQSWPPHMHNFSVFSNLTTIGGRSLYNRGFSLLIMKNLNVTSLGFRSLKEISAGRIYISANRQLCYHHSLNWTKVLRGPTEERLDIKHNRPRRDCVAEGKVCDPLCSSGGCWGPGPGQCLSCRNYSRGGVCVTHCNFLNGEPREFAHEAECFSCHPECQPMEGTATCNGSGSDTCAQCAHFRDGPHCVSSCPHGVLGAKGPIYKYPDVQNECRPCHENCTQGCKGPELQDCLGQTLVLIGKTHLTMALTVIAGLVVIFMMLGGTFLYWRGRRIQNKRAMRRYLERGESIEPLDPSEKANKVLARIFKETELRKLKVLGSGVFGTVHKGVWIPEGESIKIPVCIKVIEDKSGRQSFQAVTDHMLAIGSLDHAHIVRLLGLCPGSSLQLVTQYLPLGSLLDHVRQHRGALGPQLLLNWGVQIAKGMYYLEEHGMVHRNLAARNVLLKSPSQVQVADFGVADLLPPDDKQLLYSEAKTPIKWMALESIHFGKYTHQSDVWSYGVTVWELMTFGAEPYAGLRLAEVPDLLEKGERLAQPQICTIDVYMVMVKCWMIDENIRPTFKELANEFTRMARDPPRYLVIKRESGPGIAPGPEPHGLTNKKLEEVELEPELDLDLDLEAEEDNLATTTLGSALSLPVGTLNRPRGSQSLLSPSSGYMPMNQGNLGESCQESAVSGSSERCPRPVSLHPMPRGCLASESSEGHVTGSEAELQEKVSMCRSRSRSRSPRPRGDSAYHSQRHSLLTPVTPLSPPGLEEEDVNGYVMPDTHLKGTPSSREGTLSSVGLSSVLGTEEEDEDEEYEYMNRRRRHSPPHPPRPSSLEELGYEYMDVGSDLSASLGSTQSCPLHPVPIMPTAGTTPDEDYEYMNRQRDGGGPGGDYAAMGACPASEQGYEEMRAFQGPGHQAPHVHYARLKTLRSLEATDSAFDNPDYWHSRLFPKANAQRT
Chain of RAC-gamma serine/threonine-protein kinase (Homo sapiens) (Q9Y243 whole entry): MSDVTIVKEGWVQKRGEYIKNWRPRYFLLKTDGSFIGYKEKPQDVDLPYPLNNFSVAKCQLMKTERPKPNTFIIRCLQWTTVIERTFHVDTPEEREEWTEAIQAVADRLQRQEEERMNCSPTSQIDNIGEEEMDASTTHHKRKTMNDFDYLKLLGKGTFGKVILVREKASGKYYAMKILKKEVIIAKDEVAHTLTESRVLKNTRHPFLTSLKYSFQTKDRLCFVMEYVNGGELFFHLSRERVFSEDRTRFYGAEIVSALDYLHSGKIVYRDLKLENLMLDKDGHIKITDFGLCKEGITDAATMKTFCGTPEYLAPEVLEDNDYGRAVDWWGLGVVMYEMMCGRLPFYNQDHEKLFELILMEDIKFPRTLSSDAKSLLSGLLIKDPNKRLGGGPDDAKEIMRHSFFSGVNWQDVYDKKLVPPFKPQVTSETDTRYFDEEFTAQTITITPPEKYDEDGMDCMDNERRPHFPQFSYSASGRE
Chain of Fibroblast growth factor receptor 3 (Homo sapiens), P22607 [G697C] (P22607 whole entry G697C): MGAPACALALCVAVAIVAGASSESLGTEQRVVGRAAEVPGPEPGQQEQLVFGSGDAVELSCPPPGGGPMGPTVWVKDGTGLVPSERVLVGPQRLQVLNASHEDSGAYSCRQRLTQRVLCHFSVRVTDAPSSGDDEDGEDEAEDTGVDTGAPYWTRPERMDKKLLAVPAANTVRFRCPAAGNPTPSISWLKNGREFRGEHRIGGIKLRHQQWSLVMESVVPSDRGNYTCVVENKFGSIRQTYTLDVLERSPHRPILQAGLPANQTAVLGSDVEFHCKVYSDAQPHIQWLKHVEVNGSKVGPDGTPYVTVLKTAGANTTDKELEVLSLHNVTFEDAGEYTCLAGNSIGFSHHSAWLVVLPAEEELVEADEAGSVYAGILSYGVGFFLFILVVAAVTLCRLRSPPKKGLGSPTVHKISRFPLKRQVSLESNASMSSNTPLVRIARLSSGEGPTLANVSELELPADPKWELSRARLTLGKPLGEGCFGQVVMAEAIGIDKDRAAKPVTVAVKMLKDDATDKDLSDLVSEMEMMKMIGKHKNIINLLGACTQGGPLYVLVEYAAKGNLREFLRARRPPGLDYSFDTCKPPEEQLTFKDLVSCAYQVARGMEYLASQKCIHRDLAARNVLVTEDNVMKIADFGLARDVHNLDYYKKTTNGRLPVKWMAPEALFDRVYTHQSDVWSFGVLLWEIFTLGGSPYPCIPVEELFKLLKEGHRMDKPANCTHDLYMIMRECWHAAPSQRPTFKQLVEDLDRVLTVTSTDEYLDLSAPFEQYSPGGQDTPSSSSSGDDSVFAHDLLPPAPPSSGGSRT
Chain of Tyrosine-protein kinase ZAP-70 (Homo sapiens) (P43403 whole entry): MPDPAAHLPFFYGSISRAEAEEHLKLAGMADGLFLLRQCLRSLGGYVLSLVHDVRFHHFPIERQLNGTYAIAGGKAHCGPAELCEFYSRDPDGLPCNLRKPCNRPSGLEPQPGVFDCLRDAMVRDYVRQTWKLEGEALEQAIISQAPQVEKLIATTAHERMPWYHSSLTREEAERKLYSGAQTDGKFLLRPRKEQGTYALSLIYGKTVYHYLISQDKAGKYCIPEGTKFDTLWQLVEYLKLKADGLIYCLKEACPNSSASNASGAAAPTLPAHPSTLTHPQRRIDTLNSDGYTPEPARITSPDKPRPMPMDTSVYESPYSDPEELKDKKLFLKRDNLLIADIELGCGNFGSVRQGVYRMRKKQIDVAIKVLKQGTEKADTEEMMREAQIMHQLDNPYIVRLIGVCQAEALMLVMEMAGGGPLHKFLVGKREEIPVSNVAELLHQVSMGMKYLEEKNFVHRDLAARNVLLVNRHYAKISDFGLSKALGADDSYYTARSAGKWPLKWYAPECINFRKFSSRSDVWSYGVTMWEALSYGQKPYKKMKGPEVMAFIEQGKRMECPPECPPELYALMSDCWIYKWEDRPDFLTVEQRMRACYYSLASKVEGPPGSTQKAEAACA
Chain of 5-hydroxytryptamine receptor 2B (P41595 whole entry): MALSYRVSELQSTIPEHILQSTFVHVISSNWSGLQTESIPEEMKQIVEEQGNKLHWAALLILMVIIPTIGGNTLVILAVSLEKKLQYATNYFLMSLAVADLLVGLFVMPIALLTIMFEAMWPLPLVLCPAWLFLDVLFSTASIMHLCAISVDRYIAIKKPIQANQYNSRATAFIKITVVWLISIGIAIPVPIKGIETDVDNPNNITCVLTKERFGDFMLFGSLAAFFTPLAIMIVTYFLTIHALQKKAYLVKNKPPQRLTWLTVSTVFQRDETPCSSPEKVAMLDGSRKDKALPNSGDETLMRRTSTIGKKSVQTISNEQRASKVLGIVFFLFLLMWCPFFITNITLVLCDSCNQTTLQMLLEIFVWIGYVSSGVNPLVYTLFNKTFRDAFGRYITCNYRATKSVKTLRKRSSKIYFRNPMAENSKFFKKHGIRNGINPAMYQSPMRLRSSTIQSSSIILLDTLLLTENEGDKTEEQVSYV
Chain of Serine/threonine-protein kinase RIO1 (Homo sapiens) (Q9BRS2 whole entry): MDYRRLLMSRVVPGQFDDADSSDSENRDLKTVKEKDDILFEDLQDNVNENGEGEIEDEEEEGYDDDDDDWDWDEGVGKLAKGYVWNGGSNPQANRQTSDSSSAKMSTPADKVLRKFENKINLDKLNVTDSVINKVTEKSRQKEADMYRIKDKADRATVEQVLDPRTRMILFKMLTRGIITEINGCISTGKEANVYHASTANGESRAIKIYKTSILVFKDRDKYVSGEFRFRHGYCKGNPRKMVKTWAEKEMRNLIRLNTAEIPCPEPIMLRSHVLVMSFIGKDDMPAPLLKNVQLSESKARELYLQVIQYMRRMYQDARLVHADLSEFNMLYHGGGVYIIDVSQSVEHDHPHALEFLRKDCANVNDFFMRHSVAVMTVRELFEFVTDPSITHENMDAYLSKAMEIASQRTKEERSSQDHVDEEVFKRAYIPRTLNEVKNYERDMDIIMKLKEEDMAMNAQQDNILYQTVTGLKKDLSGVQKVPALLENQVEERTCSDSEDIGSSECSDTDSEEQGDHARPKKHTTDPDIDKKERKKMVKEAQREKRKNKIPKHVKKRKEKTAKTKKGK

SMILES: CN(C)c1ncnc(-c2ccc3nc(Nc4cc(CN5CCN(C(=O)CC(F)(F)F)CC5)ccn4)[nH]c3c2)c1Cl [BAY-440]
- residual activity [1, 29]: 100%
- residual activity [2, 29]: 95%
- residual activity [3, 29]: 99%
- residual activity [4, 29]: 100%
- residual activity [5, 29]: 63%
- residual activity [6, 29]: 100%
- residual activity [7, 29]: 87%
- residual activity [8, 29]: 70%
- inhibition [9]: -4.19%
- residual activity [10, 29]: 63%
- inhibition [11]: 32.6%
- residual activity [12, 29]: 71%
- residual activity [13, 29]: 91%
- residual activity [14, 29]: 100%
- residual activity [15, 29]: 100%
- residual activity [16, 29]: 100%
- residual activity [17, 29]: 96%
- residual activity [18, 29]: 91%

SMILES: C[C@H](c1ccnc(Nc2nc3ccc(-c4cc(N(C)C)ncn4)cc3[nH]2)c1)N1CCN(C(=O)CC(F)(F)F)CC1 [BAY-985]
- residual activity [1, 30]: 93%
- Ki ([19]; read-out: Ki): 1.31 µM
- Ki ([19]; read-out: pKi (converted)): 1.29 µM
- inhibition [20]: 23%
- IC50 [21]: 0.018 µM (active)
- residual activity [2, 30]: 100%
- residual activity [3, 30]: 100%
- IC50 [22]: 0.312 µM (active)
- residual activity [4, 30]: 100%
- residual activity [5, 30]: 88%
- residual activity [6, 30]: 100%
- IC50 [23]: 1.73 µM (active)
- residual activity [7, 30]: 97%
- residual activity [8, 30]: 89%
- IC50 [24]: > 20 µM (not active)
- inhibition [25]: 30.5%
- residual activity [10, 30]: 98%
- IC50 [26]: > 20 µM (not active)
- inhibition [11]: 3.55%
- residual activity [12, 30]: 95%
- residual activity [13, 30]: 100%
- residual activity [14, 30]: 100%
- IC50 [27]: > 20 µM (not active)
- IC50 [28]: > 20 µM (not active)
- residual activity [15, 30]: 84%
- residual activity [16, 30]: 100%
- residual activity [17, 30]: 100%
- residual activity [18, 30]: 94%
